# Source: article PMC4890880 (ACS infectious diseases, 2016)
# Where two headings read alike, the source gives them in different places.
# How the values were obtained:
# HepG2-A16-CD81EGFP cells = assay: cells; details: Homo sapiens, HepG2, read-out: % inhibition
# [1] = system: Plasmodium berghei (Pb-Luc) exoerythrocytic-stage parasites; assay: microbe, parasite or virus in culture
# [2] = read-out: Inhibition% @ 50 uM rep1
# [3] = read-out: Inhibition% @ 50 uM rep2
SMILES,inhibition at 50 µM (HepG2-A16-CD81EGFP cells),"inhibition at 50 µM [1, 2]","inhibition at 50 µM [1, 3]"
CCCCCCc1cc(O)c2c3c(c(=O)oc2c1)CCC(C)C3 (stereo not drawn) [MMV665987],95.8%,103%,104%
Cn1c(C(=O)c2cccc3ccccc23)nc2ccccc21 [MMV665824],35.6%,96%,98%
CC1CCN(Cc2c(O)ccc3cc(-c4nc5ccccc5s4)c(=O)oc23)CC1 [MMV009127],-10.1%,75%,76%
COc1cc2c3cc1Oc1c(OC)c(OC)cc4c1C(Cc1ccc(O)c(c1)Oc1ccc(cc1)CC3N(C)CC2)N(C)CC4 (stereo not drawn) [MMV007474],99.3%,104%,104%
OC(Cn1nnc2ccccc21)Cn1c2ccc(Br)cc2c2cc(Br)ccc21 (stereo not drawn) [MMV666025],43.6%,99%,97%
COc1ccc(OC)c(C2C3=C(CC(C)(C)CC3=O)N(c3ccc(Cl)c(Cl)c3)C3=C2C(=O)CC(C)(C)C3)c1 [MMV007208],-4.26%,-11%,-11%
COc1ccc(C2C(C(=O)Nc3cccc(OC)c3)c3ccccc3C(=O)N2C2CCCCC2)cc1 (stereo not drawn) [MMV008455],28%,94%,92%
COc1ccc(CN2CCCC(C(=O)c3ccc(C(F)(F)F)cc3)C2)c(O)c1 (stereo not drawn) [MMV666060],94.3%,104%,104%
Cc1nc2ccccc2c(O)c1CC=C(Cl)Cl [MMV665994],31.7%,100%,102%
COc1ccc(-c2cc(=O)oc3c4c(ccc23)OCN(Cc2ccc(F)cc2)C4)cc1 [MMV000604],57.1%,100%,101%
COc1cc(OC)cc(N2C(=O)N(Cc3ccc(C(C)(C)C)cc3)c3ccccc3S2(=O)=O)c1 [MMV008173],-9.98%,78%,88%
Nc1ccn([C@@H]2O[C@H](CO)[C@@H](O)[C@H]2O)c(=O)n1 [MMV638723],3.04%,30%,19%
COc1ccc(C(=O)C2CC2c2ccc(Cl)cc2)cc1 (stereo not drawn) [MMV665924],38.1%,79%,83%
CCOC(=O)C1(Cc2ccccc2)CCN(Cc2cccc(OC)c2O)CC1 [MMV666109],79%,99%,100%
O=C(Cc1ccccc1)NC(c1ccc(Cl)cc1)c1c(O)ccc2ccccc12 (stereo not drawn) [MMV665972],97.4%,101%,101%
COc1ccc(C(O)(CCC(C)C)C(CN2CCOCC2)c2ccc(Cl)cc2)cc1 (stereo not drawn) [MMV000617],98.4%,103%,103%
Cc1ccccc1OCCSc1nc2ccc(NC(=O)c3cccs3)cc2s1 [MMV007396],37.1%,103%,104%
CN1C=C(c2ccc3ccccc3n2)C(c2c[nH]c3ccccc23)c2ccccc21 (stereo not drawn) [MMV008160],91.2%,103%,104%
Oc1ccc(Br)cc1CN1CCN(Cc2ccc(Cl)cc2)CC1 [MMV665809],93.9%,103%,103%
CCN(CC)CCCNc1ccnc2cc3ccccc3cc12 [MMV665783],31.7%,90%,95%
O=C(CCl)NCCOc1ccc(Cl)cc1Cl [MMV665927],91.7%,100%,99%
CCCn1c(=N)c(C(=O)NC2CCCCC2)cc2c(=O)n3cccc(C)c3nc21 [MMV008829],-21%,54%,45%
COc1ccc(CN2CCN(Cc3ccccc3)CC2)c(O)c1 [MMV665944],85.9%,69%,72%
N=c1n(CCN2CCCCC2)c2ccccc2n1CC(=O)c1ccc(Cl)c(Cl)c1 [MMV396723],96.7%,101%,102%
CCn1c2c(c(=N)c3c1CCC3)CCCC2 [MMV000340],75.3%,102%,102%
CCCCN(CCCC)S(=O)(=O)c1ccc(NC(=O)c2ccco2)cc1 [MMV007881],94.7%,98%,99%
Cn1c(=O)n(C)c2cc(CNCCNc3ccnc4cc(Cl)ccc34)ccc21 [MMV665875],45.3%,92%,92%
